Patent publication US12213970B2, “Pyridinyl sulfonamide derivatives, pharmaceutical compositions and uses thereof” (Boehringer Ingelheim International GmbH, priority 2018, dated 2025)
Where a name gives a salt, the structure may show the parent alone. Read-outs that look alike come from different tables or passages of the source.

Key:
[1] = target: T1, MAO-A (Homo sapiens, UniProt P21397); assay: MAO-A biochemical assay (MAO-Glo)
T1 construct: purchased Sigma-Aldrich M7316
T1 sequence (P21397 1-527): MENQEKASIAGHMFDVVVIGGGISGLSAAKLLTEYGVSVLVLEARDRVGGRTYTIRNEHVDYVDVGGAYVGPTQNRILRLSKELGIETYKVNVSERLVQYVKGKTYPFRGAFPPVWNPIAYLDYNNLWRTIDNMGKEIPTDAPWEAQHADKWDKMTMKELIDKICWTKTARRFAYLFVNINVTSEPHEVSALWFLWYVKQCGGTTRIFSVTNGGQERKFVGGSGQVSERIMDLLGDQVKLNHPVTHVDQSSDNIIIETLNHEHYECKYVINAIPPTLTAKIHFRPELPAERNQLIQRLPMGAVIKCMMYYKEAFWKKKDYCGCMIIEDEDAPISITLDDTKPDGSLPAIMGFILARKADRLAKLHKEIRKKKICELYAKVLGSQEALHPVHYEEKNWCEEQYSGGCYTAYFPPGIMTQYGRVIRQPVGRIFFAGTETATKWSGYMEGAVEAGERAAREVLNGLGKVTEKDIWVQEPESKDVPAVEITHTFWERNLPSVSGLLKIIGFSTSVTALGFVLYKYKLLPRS
Source text: The MAO-Glo™ Assay (commercially available from PROMEGA, #V1402) provides a sensitive method for the measurement of monoamine oxidase (MAO) activity (Valley, M. P. et al., 2006, Anal. Biochem. 359: 238-246) from a variety of tissues, biofluids or recombinant expressed or purified enzymes. As substrate a derivate of the beetle luciferin ((4S)-4,5-dihydro-2-(6-hydroxybenzothiazolyl)-4-thiazole-carboxylic acid) is used, which is oxidized at a primary amine moiety. After a spontaneous elimination and a catalyzed esterase reaction, the turnover of luciferin by the luciferase is recorded as a signal of MAO-A activity.
An aliquot of 3 μL of the compound dilution is added to a 384 well plate (Optiplate, PS, flat bottom F, black, PERKIN ELMER, #6007270) in a DMSO concentration of 1.025%.
A MAO-A enzyme aliquot (M7316, Sigma-Aldrich) is thawed on ice, diluted in reaction buffer to 1.25 mU/μL and added in a volume of 5 μL to the wells. After incubation for 20 minutes at 37° C., 2 μL of MAO substrate (dissolved in DMSO at 16 mM, diluted to 20 μM in assay buffer to obtain a final assay concentration of 4 μM) is added, mixed, and the mixture further incubated for 60 minutes at 37° C.
The turnover of the substrate is determined by the addition of 10 μL of the Detection Reagent mix which was generated by the addition of reconstitution buffer with esterase (PROMEGA, #V1402) to the luciferin detection reagent (PROMEGA, #V1402). After an incubation period of 20 minutes at 37° C., the luminescent signal is measured with a […], e.g. Envision 2104 Multilabel Reader (PERKIN ELMER).

[2] = target: T2, AOC2 (Homo sapiens, UniProt O75106); assay: AOC2 biochemical assay (Amplex Red)
T2 construct: host or cells: HEK293 cells (transient transfection), cell homogenate
T2 sequence (O75106 1-756): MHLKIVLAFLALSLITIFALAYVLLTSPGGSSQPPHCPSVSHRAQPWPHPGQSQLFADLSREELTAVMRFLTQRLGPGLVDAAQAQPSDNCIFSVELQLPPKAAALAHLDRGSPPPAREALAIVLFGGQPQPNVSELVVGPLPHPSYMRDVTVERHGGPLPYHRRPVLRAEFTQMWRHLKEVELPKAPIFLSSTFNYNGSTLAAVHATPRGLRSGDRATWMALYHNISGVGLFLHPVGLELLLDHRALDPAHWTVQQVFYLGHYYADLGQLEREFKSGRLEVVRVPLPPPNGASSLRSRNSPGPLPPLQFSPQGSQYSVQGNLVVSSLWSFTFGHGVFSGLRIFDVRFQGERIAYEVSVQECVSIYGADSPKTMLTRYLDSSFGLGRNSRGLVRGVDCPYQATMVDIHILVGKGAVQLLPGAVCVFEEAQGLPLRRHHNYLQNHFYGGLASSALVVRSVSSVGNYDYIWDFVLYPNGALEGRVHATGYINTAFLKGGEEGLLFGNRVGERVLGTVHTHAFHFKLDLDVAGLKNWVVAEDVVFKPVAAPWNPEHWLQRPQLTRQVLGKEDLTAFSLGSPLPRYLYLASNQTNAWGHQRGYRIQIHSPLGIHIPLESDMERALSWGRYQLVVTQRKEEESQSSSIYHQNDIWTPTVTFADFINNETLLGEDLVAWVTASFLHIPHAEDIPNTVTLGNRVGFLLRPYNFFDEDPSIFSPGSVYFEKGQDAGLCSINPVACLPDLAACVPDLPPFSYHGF
Description: The Amplex® Red Assay (commercially available from Thermo Fisher Scientific) provides a sensitive method for the detection of H2O2 generated during enzymatic reactions like the amine oxidation catalyzed by AOC2. […] An aliquot of 5 μL of the compound dilution is added to a 96 well plate (flat bottom F, black, GREINER bio-one, #655900) in a DMSO concentration of 2%. […] Cells are cultured for 3 days in EMEM culture medium containing 10% FCS (#04-00-1A, Biological Industries). After washing twice with ice cold PBS, cells are lysed by mechanic homogenation and cleared supernatants are shock frozen in liquid nitrogen and stored at -80° C. For the determination of AOC2 enzymatic activity cell lysates are thawed on ice and 1:1 diluted with reaction buffer. An Aliquot of 45 μL is added to the compound dilution and incubated for 30 min at 37° C. The enzymatic reaction is started with the addition of 50 μL of Amplex® Red reaction mix (final assay concentration: 100 mM sodiumphosphate, 120 μM Amplex® Red reagent (#A22177 Molecular Probes), 1.5 U/mL Horseradish Peroxidase (#P8375 Sigma-Aldrich), 2 mM phenylethylamine (#[…] Sigma-Aldrich), 0.05% Pluronic F-127 (#P3000MP Sigma-Aldrich), pH 7.4, 37° C.). The turnover per time of the substrate is determined directly with a fluorescence reader (Ex 540 nm/Em 590 nm) like Envision 2104 Multilabel Reader (PERKIN ELMER) for 60 min. (cf. Anal Biochem (1997) 253:169-174; Anal Biochem (1997) 253:162-168)

[3] = comparison table, read-out: IC50 MAO-A

SMILES | IC50 ([1]; IC50, read-out: MAO-A) [nM] | IC50 ([2]; read-out: AOC2 IC50) [nM] | further results
COC1CN(S(=O)(=O)c2ccc(OC/C(=C\F)CN)nc2)C1 [Example 33] | 40500 |  | IC50 [1, 3]: 40500 nM; IC50 ([2]; comparison table, read-out: IC50 AOC2): 55 nM
NC/C(=C/F)COc1ccc(S(=O)(=O)N2CCC[C@@H]2C(N)=O)cn1 [Example 18] | > 50000 | 176 | 
NC/C(=C/F)COc1ccc(S(=O)(=O)N2CC[C@H](C(=O)N3CCOCC3)C2)cn1 [Example 21] | > 50000 | 101 | 
CNC(=O)[C@@H]1CCCN1S(=O)(=O)c1ccc(OC/C(=C\F)CN)nc1 [Example 8] | > 50000 | 257 | 
CC(F)(F)CNC(=O)CC1CCN(S(=O)(=O)c2ccc(OC/C(=C\F)CN)nc2)CC1 [Example 51] | 20100 |  | 
CC(=O)N1CC(C2CCN(S(=O)(=O)c3ccc(OC/C(=C\F)CN)nc3)CC2)C1 [Example 9] | > 50000 | 222 | 
NC/C(=C/F)COc1cnc(N2CC[C@H](O)C2)nc1 [Z isomer of example 6 of WO 2018/027892, reference compound] |  |  | IC50 [1, 3]: 56300 nM; IC50 ([2]; read-out: IC50 AOC2): 2730 nM
NC/C(=C/F)COc1ccc(S(=O)(=O)N2CCC(C(=O)N3CCC3)CC2)cn1 [Example 10] | > 50000 | 214 | 
NC/C(=C/F)COc1ccc(S(=O)(=O)N2CC[C@H](O)C2)cc1 [Reference compound B, reference compound] |  |  | IC50 [1, 3]: 7250 nM
NC/C(=C/F)COc1ccc(S(=O)(=O)N2C[C@@H]3[C@H](C2)[C@H]3C(=O)O)cn1 [Example 45, trans-3-[6-((Z)-2-Aminomethyl-3-fluoro-allyloxy)-pyridine-3-sulfonyl]-3-aza-bicyclo[3.1.0]hexane-6-carboxylic acid trifluoroacetate] | > 50000 | 70 | 
COC(=O)[C@H]1[C@@H]2CN(S(=O)(=O)c3ccc(OC/C(=C\F)CN)nc3)C[C@@H]21 [Example 35, trans-3-[6-((Z)-2-Aminomethyl-3-fluoro-allyloxy)-pyridine-3-sulfonyl]-3-aza-bicyclo[3.1.0]hexane-6-carboxylic acid methyl ester trifluoroacetate] | > 50000 | 277 | 
CNC(=O)[C@@H]1[C@@H]2CN(S(=O)(=O)c3ccc(OC/C(=C\F)CN)nc3)C[C@@H]21 [Example 5] | > 50000 | 345 | 
NC/C(=C/F)COc1cnc(N2CCC(O)CC2)nc1 [reference compound] |  |  | IC50 [1, 3]: 54900 nM
CN(C)S(=O)(=O)c1ccc(OC/C(=C\F)CN)cc1 [Compound 10 of WO 2013/163675, reference compound] |  |  | IC50 ([1]; read-out: IC50 MAO-A): 7410 nM; ratio IC50 AOC2/IC50 AOC3 (fold less active against AOC2 as compared to AOC3) ([2]; AOC2 versus AOC3): ca. 270 fold; IC50 ([2]; read-out: IC50 AOC2): 538 nM
CNC(=O)[C@H]1[C@@H]2CN(S(=O)(=O)c3ccc(OC/C(=C\F)CN)nc3)C[C@@H]21 [Example 27] | > 50000 | 62 | 
COCCNC(=O)CC1CCN(S(=O)(=O)c2ccc(OC/C(=C\F)CN)nc2)CC1 [Example 54] | 26900 |  | 
NC/C(=C/F)COc1ccc(S(=O)(=O)N2CCC(CC(=O)N3CC(O)C3)CC2)cn1 [Example 55] | > 50000 |  | 

More lines, main results first:

IC50 ([1]; IC50, read-out: MAO-A) [nM] | IC50 ([2]; read-out: AOC2 IC50) [nM] | SMILES | further results
38600 | 39 | COC(=O)CC1CCN(S(=O)(=O)c2ccc(OC/C(=C\F)CN)nc2)CC1 [Example 32] | 
48200 | 9 | NC/C(=C/F)COc1ccc(S(=O)(=O)N2CCC(O)(C(F)(F)F)CC2)cn1 [Example 42] | 
> 50000 |  | CC1(C(=O)NCCF)CCN(S(=O)(=O)c2ccc(OC/C(=C\F)CN)nc2)CC1 [Example 53] | 
> 50000 | 1 | NC/C(=C/F)COc1ccc(S(=O)(=O)N2CCC(CC(=O)O)CC2)cn1 [Example 44, trifluoroacetate] | 
> 50000 | 202 | CCNC(=O)C1CCN(S(=O)(=O)c2ccc(OC/C(=C\F)CN)nc2)CC1 [Example 15] | 
25900 |  | NC/C(=C/F)COc1ccc(S(=O)(=O)N2CCC(CC(=O)NCCO)CC2)cn1 [Example 52] | 
> 50000 | 24 | CC1(O)CCN(S(=O)(=O)c2ccc(OC/C(=C\F)CN)nc2)CC1 [Example 41] | 
> 50000 | 40 | COC1CCN(S(=O)(=O)c2ccc(OC/C(=C\F)CN)nc2)CC1 [Example 40] | 
> 50000 | 203 | CNC(=O)[C@@H]1CCN(S(=O)(=O)c2ccc(OC/C(=C\F)CN)nc2)C1 [Example 14] | 
> 50000 | 119 | NC/C(=C/F)COc1ccc(S(=O)(=O)N2CC(C(N)=O)C2)cn1 [Example 20] | 
> 50000 | 79 | CCNC(=O)C1(C)CCN(S(=O)(=O)c2ccc(OC/C(=C\F)CN)nc2)CC1 [Example 23] | 
> 50000 | 21 | CC1(C(N)=O)CCN(S(=O)(=O)c2ccc(OC/C(=C\F)CN)nc2)CC1 [Example 49] | 
21400 | 44 | CCNC(=O)CC1CCN(S(=O)(=O)c2ccc(OC/C(=C\F)CN)nc2)CC1 [Example 30] | 
12800 | 189 | CC1(O)CN(S(=O)(=O)c2ccc(OC/C(=C\F)CN)nc2)C1 [Example 16] | 
> 50000 | 5 | CC1(C(=O)O)CCN(S(=O)(=O)c2ccc(OC/C(=C\F)CN)nc2)CC1 [Example 47] | 
> 50000 | 189 | CN(C)C(=O)C1CCN(S(=O)(=O)c2ccc(OC/C(=C\F)CN)nc2)CC1 [Example 17] | 
32300 | 61 | NC/C(=C/F)COc1ccc(S(=O)(=O)N2CCCCC2)cn1 [Example 38] | 
13500 | 3 | COC(=O)C1(C)CCN(S(=O)(=O)c2ccc(OC/C(=C\F)CN)nc2)CC1 [Example 36] | 
> 50000 |  | CC1(C(=O)NC2CC2)CCN(S(=O)(=O)c2ccc(OC/C(=C\F)CN)nc2)CC1 [Example 56] | 
